Tested on: Italian ryegrass
Test: Test E postemergence
Format: in vivo, Lolium multiflorum
Text: Seeds of plant species selected from corn (Zea mays), soybean (Glycine max), velvetleaf (Abutilon theophrasti), lambsquarters (Chenopodium album), wild poinsettia (Euphorbia heterophylla), palmer pigweed (Amaranthus palmeri), waterhemp (common waterhemp, Amaranthus rudis), surinam grass (Brachiaria decumbens), large (Lg) crabgrass (Digitaria sanguinalis), Brazilian crabgrass (Digitaria horizontalis), fall panicum (Panicum dichotomiflorum), giant foxtail (Setaria faberii), green foxtail (Setaria viridis), goosegrass (Eleusine indica), johnsongrass (Sorghum halepense), ragweed (common ragweed, Ambrosia elatior), barnyardgrass (Echinochloa crus-galli), sandbur (southern sandbur, Cenchrus echinatus), arrowleaf sida (Sida rhombifolia), Italian ryegrass (Lolium multiflorum), dayflower (Virginia (VA) dayflower, Commelina virginica), field bindweed (Convolvulus arvensis), morningglory (Ipomoea coccinea), nightshade (eastern black nightshade, Solanum ptycanthum), kochia (Kochia scoparia), yellow nutsedge (Cyperus esculentus), cocklebur (common cocklebur, Xanthium strumarium), smartweed (ladysthumb smartweed, and hairy beggarticks (Bidens pilosa), were planted into a silt loam soil and treated preemergence with test chemicals formulated in a non-phytotoxic solvent mixture which included a surfactant.
At the same time, plants from these crop and weed species and also horseweed (Canada horseweed, Conyza canadensis), waterhemp_RES1, (ALS & Triazine resistant common waterhemp, Amaranthus rudis), and waterhemp_RES2, (ALS & HPPD resistant common waterhemp, Amaranthus rudis) were planted in pots containing Redi-Earth® planting medium (Scotts Company, 14111 Scottslawn Road, Marysville, Ohio 43041) comprising spaghnum peat moss, vermiculite, wetting agent and starter nutrients were treated with postemergence applications of test chemicals formulated in the same manner. Plants ranged in height from 2 to 18 cm for postemergence treatments (1- to 4-leaf stage). Treated plants and controls were maintained in a greenhouse for 14 to 21 days, after which time all species were compared to controls and visually evaluated. Plant response ratings, summarized in Table E, are based on a scale of 0 to 100 where 0 is no effect and 100 is complete control. A dash (-) response means no test result.

[1] = Postemergence, 31 g ai/ha, scale 0 to 100
[2] = Postemergence, 62 g ai/ha, scale 0 to 100
[3] = Postemergence, 125 g ai/ha, scale 0 to 100
[4] = postemergence, 16 g ai/ha, scale 0 to 100, 0 no effect, 100 complete control

Compound | Plant response rating, Ryegrass, Italian [1] | Plant response rating, Ryegrass, Italian [2] | Plant response rating, Ryegrass, Italian [3] | Plant response rating, Ryegrass, Italian (Postemergence, 250 g ai/ha, scale 0 to 100) | Plant response rating, Ryegrass, Italian [4] | Plant response rating, Ryegrass, Italian (postemergence, 8 g ai/ha, scale 0 to 100, 0 no effect, 100 complete control) | pest or weed control at 31 g/ha (Lolium multiflorum, post-emergence, Postemergence, 31 g ai/ha, scale 0 to 100, read-out: Plant response rating, Ryegrass, Italian) | pest or weed control at 62 g/ha (Lolium multiflorum, post-emergence, Postemergence, 62 g ai/ha, scale 0 to 100, read-out: Plant response rating, Ryegrass, Italian) | pest or weed control at 125 g/ha (Lolium multiflorum, post-emergence, Postemergence, 125 g ai/ha, scale 0 to 100, read-out: Plant response rating, Ryegrass, Italian) | pest or weed control at 250 g/ha (Lolium multiflorum, post-emergence, Postemergence, 250 g ai/ha, scale 0 to 100, read-out: Plant response rating, Ryegrass, Italian) | pest or weed control at 16 g/ha (Lolium multiflorum, post-emergence, postemergence, 16 g ai/ha, scale 0 to 100, 0 no effect, 100 complete control, read-out: Plant response rating, Ryegrass, Italian)
FC(F)(F)c1cnn(-c2ccccc2Oc2ncc(Cl)cn2)c1 [Compound 16] | 0 | 0 | 0 | 0 | 0 | – | – | – | – | – | –
Clc1cnc(Oc2cccc(Br)c2-n2cc(Br)cn2)nc1 [Compound 65] | 0 | 0 | 0 | – | 0 | 0 | – | – | – | – | –
Fc1cnc(Oc2ccccc2-n2cc(Br)cn2)nc1 [Compound 10, 2-[2-(4-bromo-1H-pyrazol-1-yl)phenoxy]-5-fluoropyrimidine] | – | – | – | – | – | – | 0% | 0% | 0% | 0% | 0%
